Reference: BindingDB's records for PubMed 33316752 (University of Sharjah, 2021)

Target: RAF proto-oncogene serine/threonine-protein kinase (Homo sapiens, UniProt P04049)
Assay: Inhibition of RAF1 (unknown origin) incubated for 40 mins by scintillation counting analysis

RAF proto-oncogene serine/threonine-protein kinase, sequence (P04049 whole entry): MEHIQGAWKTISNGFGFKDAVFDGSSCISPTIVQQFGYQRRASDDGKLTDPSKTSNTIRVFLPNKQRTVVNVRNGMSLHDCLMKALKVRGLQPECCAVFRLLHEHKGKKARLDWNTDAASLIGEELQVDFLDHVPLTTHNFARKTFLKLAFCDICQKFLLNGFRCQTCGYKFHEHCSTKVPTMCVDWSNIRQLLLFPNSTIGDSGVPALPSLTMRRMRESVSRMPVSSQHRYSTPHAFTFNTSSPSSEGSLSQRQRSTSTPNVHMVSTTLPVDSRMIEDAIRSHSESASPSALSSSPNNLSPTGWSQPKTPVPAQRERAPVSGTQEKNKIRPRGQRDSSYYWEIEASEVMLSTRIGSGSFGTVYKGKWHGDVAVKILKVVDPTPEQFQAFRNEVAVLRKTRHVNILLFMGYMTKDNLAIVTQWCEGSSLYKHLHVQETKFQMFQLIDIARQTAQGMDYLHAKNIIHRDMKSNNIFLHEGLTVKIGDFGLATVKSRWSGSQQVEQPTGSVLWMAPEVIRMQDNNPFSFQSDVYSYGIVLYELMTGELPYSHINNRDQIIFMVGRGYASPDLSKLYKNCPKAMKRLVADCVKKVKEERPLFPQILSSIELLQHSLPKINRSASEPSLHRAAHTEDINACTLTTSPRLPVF

IC50: 8.2 nM
Compound: O=C(NCCNc1nccc(-c2c(-c3cccc(O)c3)nc3sccn23)n1)c1ccccc1
